Test results as given in patent US4322426A, “17-Substituted-6-desoxy-7,8-dihydro-6α-methylnoroxymorphone narcotic antagonists” (priority 1980, dated 1982).

Key:
[1] = test system: Straub tail induced by morphine; experiment: Anti-Straub Tail test, antagonism of morphine-induced Straub tail; format: in vivo, Female CF1 S mice; conditions: relative to naloxone
Description: Narcotic analgesics produce in mice an erection and arching of the tail (90° or more) which is referable to spinal cord stimulation. This Straub tail reaction is not produced by other analgesics, including the narcotic antagonists.
H. B. Dayton and P. S. Wolf, The Pharmacologist, 10, 189 (1968)]. This property is the basis of a mouse test for narcotic antagonists.
Female CF1 S mice (fasted 17-21 hrs.), 5 per dose, were injected orally or subcutaneously (loose skin inside hind limb) with test drug at 0.67, 2, 6, 18, 54 and 162 mg/kg or other appropriate doses in 0.20 ml 1% Methocel® per mouse. Ten minutes later, 40 mg/kg (base weight) of morphine sulfate in 0.20 ml 1% Methocel® per mouse was given subcutaneously (nape of neck). The mice were observed continuously for the next 20 minutes after the first mouse of a group of 30 had received morphine. Prevention of a 90° Straub tail during this observation period was taken as indication of narcotic antagonist ability.

[2] = test system: pain induced by phenylquinone; experiment: Phenylquinone writhing test (PQW), analgesic activity; format: in vivo, female white mice; conditions: oral
Description: A standard procedure for detecting and comparing the analgesic activity of a series of compounds for which there is good correlation with human efficacy is the standard phenylquinone writhing test (PQW) modified from Siegmund, et al., Proc. Soc. Exp. Biol. Med., 95, 729 (1957). A test compound suspended in 1% methocellulose was given orally to fasted (17-21 hours) female white mice, 5-20 animals per double blind test. Aqueous (0.1% phenyl-p-benzoquinone) phenylquinone was injected intraperitoneally at 24 minutes later using 0.20 ml per mouse. […] The effective analgesic dose for 50% of the mice (ED50) was calculated by the moving average method of Thompson, W. R., Bact. Rev., 11, 115-145 (1947).

[3] = test system: Straub tail induced by morphine; conditions: literature, Blumberg et al. 1968; cited from earlier work

Structure (SMILES) | analgesic activity (in words) [2] | prevention of morphine-induced Straub tail (in words) [3] | other results
C[C@H]1CC[C@@]2(O)[C@H]3Cc4ccc(O)c5c4[C@@]2(CCN3CC2CC2)[C@H]1O5 [Compound 1] |  |  | narcotic antagonism (in words) [1]: almost the antagonistic activity of naloxone
COc1ccc2c3c1O[C@H]1[C@@H](C)CC[C@@]4(O)[C@@H](C2)N(CC2CCCO2)CC[C@]314 (some centres unmarked) [Compound 6] | weakly analgetic |  | 
C[C@H]1CC[C@@]2(O)[C@H]3Cc4ccc(O)c5c4[C@@]2(CCN3CC2CCCO2)[C@H]1O5 (some centres unmarked) [Compound 7] | weakly analgetic |  | 
C=CCN1CC[C@]23c4c5ccc(O)c4O[C@H]2C(=O)CC[C@@]3(O)[C@H]1C5 [Naloxone] |  | prevent the induction of Straub tail in mice | 
C=CCN1CC[C@]23c4c5ccc(O)c4O[C@H]2[C@@H](O)C=C[C@H]3[C@H]1C5 [nalorphine] |  | prevent the induction of Straub tail in mice | 
